Results as given in PubChem BioAssay (NCI).
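Five compound concentrations were applied to cells in 96-well plates for 48 hours; endpoints were derived by simple linear interpolation of the resulting dose-response curve. GI50: concentration for 50% inhibition of growth. TGI marks complete inhibition of growth.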

Key:
Experiment in all cases: NCI tumour cell line growth inhibition, 48 h
[1] = test system: PC-3 prostate
[2] = test system: DU-145 prostate
[3] = test system: LOX IMVI melanoma
[4] = test system: A498 renal
[5] = test system: HOP-62 NSCLC
[6] = test system: ACHN renal
[7] = test system: HCT-116 colon
[8] = test system: OVCAR-5 ovarian
[9] = test system: HL-60(TB) leukemia
[10] = test system: OVCAR-4 ovarian

| Compound | GI50 [1] | TGI [1] | GI50 [2] | TGI [2] | GI50 [3] | TGI [3] | GI50 [4] | TGI [4] | GI50 [5] | TGI [5] | GI50 [6] | TGI [6] | GI50 [7] | TGI [7] | GI50 [8] | TGI [8] | GI50 [9] | TGI [9] | GI50 [10] | TGI [10] |
| --- | --- | --- | --- | --- | --- | --- | --- | --- | --- | --- | --- | --- | --- | --- | --- | --- | --- | --- | --- | --- |
| O=C(N/N=C\c1ccc(N(CCCl)CCCl)cc1[N+](=O)[O-])c1cccnc1 | > 100 µM | > 100 µM | > 100 µM | > 100 µM | > 100 µM | > 100 µM | > 100 µM | > 100 µM | > 100 µM | > 100 µM | > 100 µM | > 100 µM | > 100 µM | > 100 µM | > 100 µM | > 100 µM | > 100 µM | > 100 µM |  |  |
| CCN(CC)CCN1C(=O)c2c(c3c4ccccc4[nH]c3c3ccc4ccccc4c23)C1=O | 1.44 µM | 3.25 µM | 1.65 µM | 3.06 µM |  |  | 1.32 µM | 2.61 µM |  |  | 1.54 µM | 2.87 µM |  |  | 1.64 µM | 3.09 µM | 2.04 µM | 4.35 µM | 1.58 µM | 2.96 µM |
| Cc1sc2c(c1C)/C(=N\O)c1cccn1-2 |  | > 100 µM |  | > 100 µM |  | > 100 µM |  | 75.9 µM |  | 63.3 µM |  | > 100 µM |  | > 100 µM |  | > 100 µM |  |  |  | > 100 µM |
| CCOC(=O)c1nc2ccc(C(F)(F)F)cc2nc1Nc1ccc(Cl)c(Cl)c1 |  | > 100 µM |  | > 100 µM |  | > 100 µM |  | > 100 µM |  | > 100 µM |  | > 100 µM |  | > 100 µM |  | > 100 µM |  | > 100 µM |  |  |
| C=C1C(O)C[C@H](OC(C)=O)[C@]2(C)C1C(OC(C)=O)[C@]1(C(C)(C)O)CC(O)C(C)=C1[C@@H](OC(=O)c1ccccc1)C2OC(C)=O (stereo not given in full) |  | > 10 µM |  | > 10 µM |  | > 10 µM |  | > 10 µM |  |  |  | > 10 µM |  | > 10 µM |  | > 10 µM |  | > 10 µM |  | > 10 µM |
| COc1cc2c(c(O)c1OC)CC1CCC(=O)N1C2c1cccc2ccccc12 (stereo not given) |  | 43.7 µM |  | 37.3 µM |  | 52.4 µM |  | 68.8 µM |  | 41.8 µM |  | > 100 µM |  | 45.3 µM |  | 38.2 µM |  | > 100 µM |  |  |
| Cc1oc2c(c1C)S(=O)(=O)C(C#N)=C(N(C)C)N2 |  | > 100 µM |  | > 100 µM |  | > 100 µM |  | > 100 µM |  | > 100 µM |  | > 100 µM |  | > 100 µM |  | > 100 µM |  |  |  | > 100 µM |
| O=C1C(Cl)=C(N(C(=O)c2ccccc2)C(=O)c2ccccc2)C(=O)c2ccccc21 |  | > 100 µM |  | > 100 µM |  | > 100 µM |  | > 100 µM |  | > 100 µM |  | 13.9 µM |  | 17.6 µM |  | 34.3 µM |  | 3.15 µM |  |  |
| COc1cc(OC)c2c3c(OC)cc(OC)c4c(=O)c(O)c(C[C@@H](C)O)c(c5c(C[C@@H](C)O)c(O)c(=O)c1c25)c43 |  |  |  | > 100 µM |  | 35.3 µM |  | 71.8 µM |  | > 100 µM |  | > 100 µM |  | 30.1 µM |  | > 100 µM |  | 30.7 µM |  | > 100 µM |
